This note sets out measurements from US4885299A, “2-(2,3-dihydro-2-oxo-3-benzofuranyl)acetic acids antihypoxic and nootropic effects having” (ADIR Et Cie, priority 1987, dated 1989).

For test [1], the system named is Acute hypoxia in mice; survival of the brain. Briefly: Acute hypoxia in mice (hypobaric); brain survival time to final respiratory gasp. It is filed as in vivo, Male CD1 mice (Charles River). Conditions: 30 minutes before hypoxia, mice; for change in vivo at 10 mg/kg: 10 mg/kg I.P.; for change in vivo at 30 mg/kg: 30 mg/kg I.P.; for change in vivo at 300 mg/kg: 300 mg/kg I.P. How it is done:
(§1) The compounds of the present invention were tested in respect of their capacity to prolong the survival of cerebral tissue during acute hypoxia in mice, or to maintain the level of tissue energy-rich compounds in rats subjected to a fall in the oxygen supply [Pharmacology of Cerebral Ischemia, p. 334-339 (1968) Elsevier Science Publishers B.V., J. Krieglstein ed.]. […] Forsch. Drug. Res. (1986), 36 II No. 9, p. 1314-1320].
The survival of the brain is assessed by measuring the time at which the final respiratory gasp is observed.
The survival time of a treated batch is compared with that of a control batch receiving only the solvent.
The percentage increase in the survival time after the animals are treated with the compounds of the invention is shown in Table II.

Test [2] concerns brain energy-rich compounds (ATP, ADP, AMP). Briefly: Acute hypoxia in rats; protection of tissue energy-rich compounds in brain (ATP, energy content). The test is classed as in vivo, Male Fischer 344 rats (Charles River). Conditions: 100 mg/kg I.P., 3% oxygen for 2 minutes. The protocol:
as §1
Whereas the control rats breath a gaseous mixture containing 21% of oxygen and 79% of nitrogen, the rats subjected to hypoxia breath a mixture of 3% oxygen and 97% nitrogen for 2 minutes.
At the end of the hypoxic period, the animals are rapidly sacrificed by total immersion in liquid nitrogen. The frozen brain is removed and the energy-rich compounds (ATP, ADP, AMP) are extracted and assayed by the luciferin luminescence method.
The tissue energy content (EC) is calculated according to ATKINSON's formula: [formula]

Setting [3] is: Mus musculus, ip, 100 mg/kg I.P., read-out: Percentage increase in the survival time.
[4] abbreviates: Mus musculus, ip, read-out: Percentage increase in the survival time.

Structures can show the parent of a compound that is named as a salt.

Consider `O=C(CC1(c2ccccc2)C(=O)Oc2ccc(Cl)cc21)N1CCOCC1` (stereo not drawn) [Example 14, 2-(5-Chloro-2,3-dihydro-2-oxo-3-phenyl-3-benzofuranyl)-1-morpholino-1-oxoethane], for which, in test [1] (setting [3]), the change in vivo at 100 mg/kg turned out to be 88%.
With `O=C(CC1(c2ccccc2)C(=O)Oc2ccc(Cl)cc21)N1CCN(c2cc(C(F)(F)F)ccn2)CC1` (stereo not drawn) [Example 27, 2-(5-Chloro-2,3-dihydro-2-oxo-3-phenyl-3-benzofuranyl)-1-[4-(4-trifluoromethyl-2-pyridyl)piperazinyl]-1-oxoethane], in test [1] (setting [4]), the change in vivo at 10 mg/kg worked out at 36% and the change in vivo at 30 mg/kg came to 59%. For the same molecule, the change in vivo at 100 mg/kg in test [1] (setting [3]) was determined as 76%.
`O=C(O)CC1(c2ccccc2)C(=O)Oc2ccc(F)cc21` (stereo not drawn) [Example 2, 2-(2,3-Dihydro-5-fluoro-2-oxo-3-phenyl-3-benzofuranyl)acetic acid]: the change in vivo at 100 mg/kg in test [1] (setting [3]) was determined as 38%.
In the case of `Cc1cccc(N2CCN(C(=O)CC3C(=O)Oc4ccc(Cl)cc43)CC2)c1` (stereo not drawn) [Example 26, 2-(5-Chloro-2,3-dihydro-2-oxo-3-benzofuranyl)-1-[4-(3-methylphenyl)piperazinyl]-1-oxoethane hydrochloride], in test [1] (setting [4]), the change in vivo at 10 mg/kg came to 52%, the change in vivo at 30 mg/kg was found to be 53% and the change in vivo at 300 mg/kg is 190%. Besides, the change in vivo at 100 mg/kg in test [1] (setting [3]) is greater than 130%.
Take `O=C(O)CC1(c2ccccc2)C(=O)Oc2ccc(O)cc21` (stereo not drawn) [Example 5, 2-(2,3-Dihydro-5-hydroxy-2-oxo-3-phenyl-3-benzofuranyl)acetic acid]: the change in vivo at 100 mg/kg in test [1] (setting [3]) came to 69%.
As for `Cc1cccc(N2CCN(C(=O)CC3(c4ccccc4)C(=O)Oc4ccc(Cl)cc43)CC2)c1` (stereo not drawn) [Example 19, 2-(5-Chloro-2,3-dihydro-2-oxo-3-phenyl-3-benzofuranyl)-1-[4-(3-methylphenyl)piperazinyl]-1oxoethane hydrochloride], the change in vivo at 100 mg/kg in test [1] (setting [3]) stood at 76%.
As to `O=C(O)CC1(c2ccccc2)C(=O)Oc2ccccc21` (stereo not drawn) [Example 3, 2-(2,3-Dihydro-2-oxo-3-phenyl-3-benzofuranyl) acetic acid], the change in vivo at 100 mg/kg in test [1] (setting [3]) is 29%.
Consider `O=C(CC1(c2ccccc2)C(=O)Oc2ccc(O)cc21)OCc1ccccc1` (stereo not drawn) [Example 7], for which, in test [1] (setting [3]), the change in vivo at 100 mg/kg worked out at 14%. Further, the change in vivo at 300 mg/kg in test [1] (setting [4]) is 156%.
As to `CC(C)C[C@@H](C(=O)O)N(C)C(=O)CC1(c2ccccc2)C(=O)Oc2ccc(Cl)cc21` (stereo partly drawn) [Example 11, N-Methyl-N-[2-(5-chloro-2,3-dihydro-2-oxo-3-phenyl-3-benzofuranyl)acetyl]leucine], the change in vivo at 100 mg/kg in test [1] (setting [3]) worked out at 159%.
Take `CCN1CCCC1CN(C)C(=O)CC1(c2ccccc2)C(=O)Oc2ccc(Cl)cc21` (stereo not drawn) [Example 32, 2-(5-Chloro-2-oxo-3-phenyl-3-benzofuranyl)-1-[(1-ethylpyrrolidinyl)methyl]methylamino-1-oxoethanehydrochloride]: the change in vivo at 30 mg/kg in test [1] (setting [4]) worked out at 26%.
Consider `O=C(CC1(c2ccccc2)C(=O)Oc2ccc(Cl)cc21)N1CCN(Cc2ccccc2)CC1` (stereo not drawn) [Example 17, 2-(5-Chloro-2,3-dihydro-2-oxo-3-phenyl-3-benzofuranyl)-1-(4-benzylpiperazinyl)-1-oxoethane], for which the change in vivo at 30 mg/kg in test [1] (setting [4]) was 40%. The change in vivo at 100 mg/kg in test [1] (setting [3]) turned out to be 66%.
On to `O=C(CC1(c2ccccc2)C(=O)Oc2ccc(Cl)cc21)N1CCN(c2cccc(C(F)(F)F)c2)CC1` (stereo not drawn) [Example 18, 2-(5-Chloro-2,3-dihydro-2-oxo-3-phenyl-3-benzofuranyl)-1-[4-(3-trifluoromethylphenyl)piperazinyl)-1-oxoethane hydrochloride], for which, in test [1] (setting [4]), the change in vivo at 10 mg/kg came to 41%, the change in vivo at 30 mg/kg was 53% and the change in vivo at 300 mg/kg was found to be 103%. Further, the change in vivo at 100 mg/kg in test [1] (setting [3]) was determined as 88%.
As for `O=C(O)CC1(c2ccc(Cl)cc2)C(=O)Oc2ccccc21` (stereo not drawn) [Example 4, 2-[3-(4-Chlorophenyl)-2,3-dihydro-2-oxo-3-benzofuranyl)acetic acid], the change in vivo at 100 mg/kg in test [1] (setting [3]) was 17%.
As to `COc1ccc2c(c1)C(CC(=O)O)(c1ccccc1)C(=O)O2` (stereo not drawn) [Example 6, 2-(2,3-Dihydro-5-methoxy-2-oxo-3-phenyl-3-benzofuranyl)acetic acid], in test [1] (setting [3]), the change in vivo at 100 mg/kg stood at 41%.
For the molecule `O=C(CC1(c2ccccc2)C(=O)Oc2ccccc21)N1CCN(Cc2ccc3c(c2)OCO3)CC1` (stereo not drawn) [Example 22, 2-(2,3-Dihydro-2-oxo-3-phenyl-3-benzofuranyl)-1-[4-(3,4-methylenedioxybenzyl)piperazinyl]-1-oxoethane hydrochloride], the “Percentage increase in the survival time” value in test [1] (100 mg/kg I.P., listed as Ex. 22, hydrochloride) is “+126%”. Besides, in test [1] (setting [4]), the change in vivo at 10 mg/kg amounted to 11% and the change in vivo at 30 mg/kg was determined as 42%. Further, in test [1] (setting [3]), the change in vivo at 100 mg/kg came to 126%.
With `Cc1cccc(CN2CCN(C(=O)CC3C(=O)Oc4ccccc43)CC2)c1` (stereo not drawn) [Example 25, 2-(2,3-Dihydro-2-oxo-3-benzofuranyl)-1-[4-(3-methylbenzyl)piperazinyl]-1-oxoethane hydrochloride], in test [2], the “% inhibition of the effects of hypoxia, ATP” value worked out at 50.5% and the “% inhibition of the effects of hypoxia, EC (tissue energy content)” value is listed as 52.6%.
Turning to `CCN(CC)CCN(C)C(=O)CC1(c2ccccc2)C(=O)Oc2ccc(Cl)cc21` (stereo not drawn) [Example 12, N-Methyl-N-diethylaminoethyl-2-(5-chloro-2,3-dihydro-2-oxo-3-phenyl-3-benzofuranyl)acetamide hydrochloride], the change in vivo at 3 mg/kg in test [1] (Mus musculus, ip, 3 mg/kg I.P., read-out: Percentage increase in the survival time) came to 32%. Besides, in test [1] (setting [4]), the change in vivo at 10 mg/kg amounted to 41% and the change in vivo at 30 mg/kg worked out at 84%. The change in vivo at 100 mg/kg in test [1] (setting [3]) was greater than 180%.
Turning to `O=C(O)CN1CCN(C(=O)CC2(c3ccccc3)C(=O)Oc3ccc(Cl)cc32)CC1` (stereo not drawn) [Example 29, 2-(5-Chloro-2,3-dihydro-2-oxo-3-phenyl-3-benzofuranyl)-1-(4-carboxymethylpiperazinyl)-1-oxoethane hydrochloride], in test [1] (setting [4]), the change in vivo at 30 mg/kg was 32%. In addition, the change in vivo at 100 mg/kg in test [1] (setting [3]) was found to be 66%.
Consider `CCN(CC)C(=O)CC1(c2ccccc2)C(=O)Oc2ccc(Cl)cc21` (stereo not drawn) [Example 10, N,N-Diethyl-2-(5-chloro-2,3-dihydro-2-oxo-3-phenyl-3-benzofuranyl)acetamide], for which, in test [1] (setting [3]), the change in vivo at 100 mg/kg was found to be 97%.
In the case of `CN(C(=O)CC1(c2ccccc2)C(=O)Oc2ccc(Cl)cc21)[C@@H](Cc1ccccc1)C(=O)O` (stereo partly drawn) [Example 28, N-[2-(5-Chloro-2,3-dihydro-2-oxo-3-phenyl-3-benzofuranyl)acetyl]-N-methylphenylalanine], in test [1] (setting [3]), the change in vivo at 100 mg/kg came to 90%.
With `COc1cccc(C2CCCN(C(=O)CC3(c4ccccc4)C(=O)Oc4ccc(Cl)cc43)C2)c1` (stereo not drawn) [Example 30, 2-(5-Chloro-2,3-dihydro-2-oxo-3-phenyl-3-benzofuranyl)-1-[3-(3-methoxyphenyl)piperidyl]-1-oxoethane], in test [1] (setting [4]), the change in vivo at 10 mg/kg was determined as 32% and the change in vivo at 30 mg/kg is 36%. Further, the change in vivo at 100 mg/kg in test [1] (setting [3]) was 103%.
Turning to `O=C(CC1(c2ccccc2)C(=O)Oc2ccc(Cl)cc21)N1CCN(CCO)CC1` (stereo not drawn) [Example 15, 2-(5-Chloro-2,3-dihydro-2-oxo-3-phenyl-3-benzofuranyl)-1-[4-(2-hydroxyethyl)piperazinyl]-1-oxoethane hydrochloride], in test [1] (setting [4]), the change in vivo at 10 mg/kg worked out at 34% and the change in vivo at 30 mg/kg was found to be 41%. Further, the change in vivo at 100 mg/kg in test [1] (setting [3]) is greater than 130%. Further, the change in vivo at 200 mg/kg in test [1] (Mus musculus, ip, 200 mg/kg I.P., read-out: Percentage increase in the survival time) was found to be 203%.
For the molecule `O=C(O)[C@@H]1CCCN1C(=O)CC1(c2ccccc2)C(=O)Oc2ccc(Cl)cc21` (stereo partly drawn) [Example 13, N-[2-(5-chloro-2,3-dihydro-2-oxo-3-phenyl-3-benzofuranyl)acetyl]proline], the change in vivo at 100 mg/kg in test [1] (setting [3]) was 8%.
On to `CCOC(=O)CC1(c2ccccc2)C(=O)Oc2ccc(Cl)cc21` (stereo not drawn) [Example 8, 2-(5-Chloro-2,3-dihydro-2-oxo-3-phenyl-3-benzofuranyl)acetic acid ethyl ester], for which the change in vivo at 100 mg/kg in test [1] (setting [3]) stood at 52%.
As for `CN(CC(=O)O)C(=O)CC1(c2ccccc2)C(=O)Oc2ccccc21` (stereo not drawn) [Example 21, N-Methyl-N-[2-(2,3-dihydro-2-oxo-3-phenyl-3-benzofuranyl)acetyl]glycine], the change in vivo at 100 mg/kg in test [1] (setting [3]) worked out at 14%.
